Results reported in US7442788B2, “Antisense molecules and method of controlling expression of gene function by using the same” (Japan Science and Technology Corporation, priority 2001, dated 2008).
Where “and” joins values, the source holds several entries; their conditions need not be identical. Equal values may be shown once.

What was measured:
[1] = Circular dichroism (CD) spectrum, molar ellipticity at about 270 nm as measure of base moiety orientation (syn/anti); type: physicochemical; conditions: for Δ[θ]ext: phosphate buffer minus borate buffer; for change of [θ]ext / CD peak from phosphate buffer to borate buffer (borax): phosphate vs borate buffer
From the text: The molar ellipticity ([θ]max) at about 270 nm in the CD spectrum of a nucleoside reflects two factors, namely the orientation of the base moiety to the furanose moiety and the puckering of the furanose ring. It is known that the molar ellipticity at about 270 nm markedly decreases in the syn orientation as compared with the anti orientation. […]
[…] […] The rate of syn orientation induction in Urd in the presence of boric acid was smaller as compared with IPU but this can be explained by the presence of an equilibrium between the borate ester formation and the dissociation.
Specifically, CD spectra were measured with Urd, 5′-aminouridine (5′-NH2-Urd) and 5′-aminoisopropylideneuridine (5′-NH2-IPU) in phosphate buffer (pH 7.2) and with 5′-NH2-Urd in borate buffer (pH 7.2) for the investigation of uracil moiety orientations. […] This is presumably due to a syn orientation-inducing effect of hydrogen bond formation between the oxygen atom of the 2-position carbonyl group of the nucleoside base moiety and the 5′-position amino hydrogen atom. Under the measurement conditions in this case, the 5′-position amino group of 5′-NH2-Urd occurs in an ammonium ion state and presumably serves as a good hydrogen bond donor. […] This is probably due to two synergistic effects, namely the fixation of the sugar moiety to the 2′,3′-planar structure and the hydrogen bond formation between the 5′-position amino group and the 2-position carbonyl group of the base moiety.
Then, on the supposition that Urd in phosphate buffer ([θ]max value=9700) is in an ideal 100% anti orientation and 5′-NH2-IPU in phosphate buffer ([θ]max value=1200) in an ideal 100% syn orientation, the orientations of the base moiety (uracil) of uridine and uridine derivatives (5′-NH2-Urd, IPU, 5′-NH2-IPU) were evaluated under different conditions (in phosphate buffer, in borate buffer).

[2] = Association constant with boric acid from CD peak decrement against borax/boric acid concentration, curve fitting; type: binding
Procedure: However, there is no direct evidence as yet that this change in base moiety orientation is induced by borate ester bond formation. Therefore, the dependency of the change in base moiety orientation on the concentration of borax (Na2B4O7) was investigated at pH 7.2. […] The association constant of 5′-NH2-Urd with boric acid was determined by plotting the decrement in peak height against the boric acid (borax) concentration, followed by curve fitting. Supposing that borax give 4 equivalents of boric acid in aqueous solution, the association constant of 5′-NH2-Urd with boric acid was calculated at 75 M^−1.
In addition to the above-mentioned borax, boric acid (B(OH)3) was also used and the addition test was carried out in the same manner. In this case, too, decreases in peak height were observed, and the association constant was calculated at 49 M^−1. In addition, changes in orientation due to ester formation were also observed with methylboric acid and phenylboric acid.
As is evident from FIG. 8a, almost the same change as that attained by addition of 50 mM of borax at pH 7.2 was obtained at pH 8.8 only by addition of 2 mM of borax. […] The association constant 5′-NH2-Urd with boric acid was calculated at 600 M^−1, which is greater by one order than at pH 7.2.

d(A)8 = assay: Melting point (Tm) of complex with oligonucleotide by UV absorbance change; type: binding; conditions: phosphate pH 7.2
Procedure: (§1) Specifically, the PRNA2 (octamer) (17) was mixed with the oligonucleotide octamer shown in Table 3, the melting point (Tm) was determined by measuring the resulting change in absorbance on a UV spectrum, and the ability of the PRNA2 (octamer) (17) to hybridize with a nucleic acid (complex forming ability) was evaluated from that melting point. Further, for examining the influence of boric acids on the PRNA2 (octamer)-DNA hybrid formation and on the stability thereof, melting point measurements were carried out using the PRNA2 (octamer) (17) and d(A)8 as the binding target oligonucleotide to the PRNA2, namely a complementary compound to (T)8, with and without addition of borax (20 mM), and the melting points were compared. A control run was carried out in the same manner using (T)8 as the binding target oligonucleotide in lieu of d(A) 8.

(T)8 = assay: Melting point (Tm) of complex with oligonucleotide by UV absorbance change, control run; type: binding; conditions: phosphate pH 7.2
Procedure: as §1

d(A)12 = assay: Melting temperature (Tm) of dodecameric chimera nucleic acid with complementary DNA; type: binding
Procedure: Using the above dodecameric chimera nucleic acid and a DNA having a complementary base sequence, the melting temperature Tm was measured in phosphate buffer allowing predominance of the anti orientation in the PRNA moiety.

5′-d(AAAAACCA)-3′ = assay: Melting temperature (Tm) of PRNA (octamer)-DNA hybrid by UV absorbance change; conditions: binding target 5′d(AAAAACCA)3′
Procedure: (§2) Specifically, the PRNA (octamer NH2-UIIUUUUU-Lys-OH) was mixed with each of oligonucleotide octamers specified in Table 6, the melting temperature (Tm) was determined by measuring the resulting change in absorbance on UV spectra, and the ability of the PRNA (octamer) to hybridize with the nucleic acid (complex forming ability) was evaluated based on the resultant melting temperature. Furthermore, the effects of a borate on the PRNA (octamer)-DNA hybrid formation and the stability thereof were investigated using the PRNA (octamer) and 5′-d(AAAAACCA)-3′, a complementary compound as its binding target oligonucleotide, and measuring the melting temperatures with and without addition of borax (20 mM) to the phosphate buffer and comparing them. A control experiment was carried out in the same manner using 5′-d(ACCAAAAA)-3′ as the binding target oligonucleotide in lieu of 5′-d(AAAAACCA)-3′.

5′-d(ACCAAAAA)-3′ = assay: Melting temperature (Tm) of PRNA (octamer)-DNA hybrid by UV absorbance change, control experiment; type: binding; conditions: for Tm: binding target 5′d(ACCAAAAA)3′
Procedure: as §2

[3] = test system: polyadenylic acid (poly(A)); assay: Complex formation by continuous absorbance (260 nm) plotting, control by borax and sugars; type: binding
Procedure: Therefore, poly(Nγ-(5′-deoxy-5′-uridyl)-L-glutamine) PRNA1 (Production Example 1) was examined for its complex forming ability using polyadenylic acid (poly(A)) as its complementary strand. […] Then, borax was added to this PRNA1- and poly(A)-containing phosphate buffer solution, whereupon the absorbance (260 nm) increased in a concentration-dependent manner until a certain concentration, as shown by the plots ▪ in FIG. 20(a). Upon addition of borax in an amount about 3 times the amount of the PRNA1, the absorbance (260 nm) increased to be the original absorbance prior to addition of poly(A). […] Furthermore, this borate ester was in equilibrium with its anionic form even at pH 7.2.

[4] = phosphate buffer (pH 7.2), no borax, Urd = 100% anti, 5′-NH2-IPU = 100% syn supposed

## 5′-aminoisopropylideneuridine [5′-NH2-IPU, reference compound]
[1]; phosphate buffer (pH 7.2)
  [θ]max: 1200 deg cm^2dmol^−1
[1]; [4]
  proportion of syn orientation of the base moiety: 100 % syn

## NC[C@H]1O[C@@H](n2ccc(N)nc2=O)[C@H](O)[C@@H]1O [5′-NH2-Cyd, 5′-amino-5′-deoxycytidine]
[1]; borate buffer (pH 7.2)
  [θ]max: 4900 deg cm^2dmol^−1
[1]; phosphate buffer (pH 7.2)
  [θ]max: 8400 deg cm^2dmol^−1

## Cc1cn([C@H]2C[C@H](O)[C@@H](CN)O2)c(=O)[nH]c1=O [5′-NH2-Thd [A], 5′-amino-5′-deoxythymidine, reference compound]
[1]; borate buffer (pH 7.2)
  Molar ellipticity ([θ]ext) at about 270 nm: 950 deg·cm2/dmol
[1]; phosphate buffer (pH 7.2)
  Molar ellipticity ([θ]ext) at about 270 nm: 600 deg·cm2/dmol
[1]
  Δ[θ]ext: −350

## NC[C@H]1O[C@@H](n2ccc(=O)[nH]c2=O)[C@H](O)[C@@H]1O [5′-NH2-Urd, 5′-amino-5′-deoxyuridine]
[2]; boric acid (B(OH)3) added instead of borax
  association constant with boric acid: 49 M⁻¹
[2]; pH 7.2, borax added, borax supposed to give 4 equivalents of boric acid
  association constant with boric acid: 75 M⁻¹
[2]; pH 8.8, borax added
  association constant with boric acid: 600 M⁻¹
[1]; 8 mM borax added, phosphate buffer pH 7.2
  proportion of syn orientation of the base moiety: 83 % syn
[1]; 8 mM borax, pH adjusted from 7.2 to 6.2
  proportion of syn orientation of the base moiety: 58 % syn
[1]; borate buffer (pH 7.2)
  Molar ellipticity ([θ]ext) at about 270 nm: 1600 deg·cm2/dmol
  [θ]max: 1600 deg cm^2dmol^−1
  proportion of syn orientation of the base moiety: 95 % syn
[1]; pH 6.0
  change of CD peak at about 270 nm / orientation upon addition of borax: almost no peak decreases were observed
[1]; pH 8.8
  change of CD peak at about 270 nm / orientation upon addition of borax: syn orientation is induced more effectively at pH 8.8
[1]; phosphate buffer (pH 7.2)
  Molar ellipticity ([θ]ext) at about 270 nm: 5100 deg·cm2/dmol
  [θ]max: 5100 deg cm^2dmol^−1
[1]; [4]
  proportion of syn orientation of the base moiety: 55 % syn and 54 % syn
[1]
  Δ[θ]ext: 3500

## CC(C)(C)OC(=O)N[C@@H](CCC(=O)NC[C@H]1O[C@@H](n2ccc(=O)[nH]c2=O)[C@H](O)[C@@H]1O)C(=O)O [Boc-isoGln(5′U)-OH, N^α-t-butoxycarbonyl-N^5-(5′-deoxy-5′-uridyl)-L-isoglutamine]
[1]; borate buffer (pH 7.2)
  proportion of syn orientation of the base moiety: 56 % syn

## Nc1ccn([C@@H]2O[C@H](CO)[C@@H](O)[C@H]2O)c(=O)n1 [Cytidine (Cyd), Cytidine, reference compound]
[1]; borate buffer (pH 7.2)
  [θ]max: 12200 deg cm^2dmol^−1
[1]; phosphate buffer (pH 7.2)
  [θ]max: 14200 deg cm^2dmol^−1

## O=c1ccn([C@@H]2O[C@H](CO)[C@@H](O)[C@H]2O)c(=O)[nH]1 [Urd, uridine, reference compound]
[1]; borate buffer (pH 7.2)
  [θ]max: 7400 deg cm^2dmol^−1
  proportion of syn orientation of the base moiety: 27 % syn
[1]; phosphate buffer (pH 7.2)
  [θ]max: 9700 deg cm^2dmol^−1
  proportion of anti orientation of the base moiety: 100 % anti

## Boc-AEG(5′U)-OH
[1]; 5.5 mM borax added, phosphate buffer pH 7.2
  proportion of syn orientation of the base moiety: 76 % syn
[1]; 5.5 mM borax, pH adjusted from 7.2 to 6.2
  proportion of syn orientation of the base moiety: 41 % syn
[1]; borate buffer (pH 7.2)
  proportion of syn orientation of the base moiety: 64 % syn
[1]; pH 6.0
  change of CD peak at about 270 nm / orientation upon addition of borax: almost no decrease in the relevant peak was observed
[1]; pH 8.8
  change of CD peak at about 270 nm / orientation upon addition of borax: very efficient increase in syn orientation proportion
[1]; [4]
  proportion of syn orientation of the base moiety: 39 % syn

## Boc-isoGln(5′I)-isoGln(5′U)-OH [I-U]
[1]; borate buffer (pH 7.2)
  Molar ellipticity ([θ]ext) at about 270 nm: 1400 deg·cm2/dmol
[1]; phosphate buffer (pH 7.2)
  Molar ellipticity ([θ]ext) at about 270 nm: 4800 deg·cm2/dmol
[1]
  Δ[θ]ext: 3400

## Boc-isoGln(5′U)-isoGln(5′I)-OH [U-I]
[1]; phosphate buffer (pH 7.2)
  Molar ellipticity ([θ]ext) at about 270 nm: 6600 deg·cm2/dmol
[1]
  Δ[θ]ext: 3300

## Boc-isoGln(5′U)-isoGln(5′I)-isoGln(5′U)-OH [U-I-U]
[1]
  change of [θ]ext / CD peak from phosphate buffer to borate buffer (borax): [θ]ext decreases

## Boc-isoGln(5′U)-isoGln(5′U)-OH [U-U]
[1]; borate buffer (pH 7.2)
  Molar ellipticity ([θ]ext) at about 270 nm: 1250 deg·cm2/dmol
[1]; phosphate buffer (pH 7.2)
  Molar ellipticity ([θ]ext) at about 270 nm: 12300 deg·cm2/dmol
[1]
  Δ[θ]ext: 11050

## Boc-isoGln(5′U)-isoGln(5′U)-isoGln(5′U)-OH [U-U-U]
[1]
  change of [θ]ext / CD peak from phosphate buffer to borate buffer (borax): [θ]ext decreases

## HCl.(isoGln(5′U))8-Lys-OH [PRNA2 (17)]
d(A)8; binding target d(A)8, 20 mM borax
  Tm: <0 °C
d(A)8; binding target d(A)8, 20 mM borax, listed as PRNA2 (octamer)
  Tm: below 0 °C
d(A)8; binding target d(A)8, no additive
  Tm: 52.8 °C
(T)8; binding target (T)8, 20 mM borax
  Tm: <0 °C
(T)8; binding target (T)8, no additive
  Tm: <0 °C

## NH2-UUUUUUUUTTTT-3′: chimeric molecule dodecamer, PRNA(Urd) octamer amide-bonded to thymidine tetramer
[1]
  change of [θ]ext / CD peak from phosphate buffer to borate buffer (borax): [θ]ext decreased
d(A)12; binding target d(A)12, 20 mM borax
  Tm: <0 °C
d(A)12; binding target d(A)12, 20 mM borax, listed as (U)8DNA(T)4
  Tm: < 0 °C
d(A)12; binding target d(A)12, no additive, phosphate buffer pH 7.2
  Tm: 42.5 °C
d(A)12; no additive
  Tm gain of the complex over the DNA-DNA complex: 19.3 °C

## NH2-isoGln(5′U)-isoGln(5′I)-isoGln(5′I)-isoGln(5′U)-isoGln(5′U)-isoGln(5′U)-isoGln(5′U)-isoGln(5′U)-Lys-OH [NH2UIIUUUUU-Lys-OH]
[1]
  change of [θ]ext / CD peak from phosphate buffer to borate buffer (borax): marked decrease
5′-d(AAAAACCA)-3′; 20 mM borax
  Tm: <0 °C
5′-d(AAAAACCA)-3′; 20 mM borax, listed as PRNA (octamer)
  Tm: lower than 0 °C
5′-d(AAAAACCA)-3′; no additive, 1/30 M phosphate buffer
  Tm: 7.8 °C
5′-d(ACCAAAAA)-3′; 20 mM borax
  Tm: <0 °C
5′-d(ACCAAAAA)-3′; no additive
  Tm: 6.2 °C
  lowering of Tm with 5′-d(ACCAAAAA)-3′ in lieu of 5′-d(AAAAACCA)-3′: 1.6 °C

## Poly(N^γ-(5′-deoxy-5′-uridyl)-L-glutamine) [PRNA1]
[3]; borax 6 times the amount of PRNA1
  amount of xylose giving perfect 1:1 complex formation: about 20 times that of the PRNA1
[3]; borax 6 times the amount of PRNA1, decrease from 1.03
  absorbance at 260 nm after addition of D(+)-xylose: 0.88
[3]; borax-containing phosphate buffer with poly(A)
  effect of D(+)-glucose in lieu of D(+)-xylose: the complex is formed
[3]; borax-free phosphate buffer pH 7.2, decrease from 1
  absorbance at 260 nm after addition of poly(A): 0.88
[3]; phosphate buffer with PRNA1 and poly(A)
  amount of borax restoring the original absorbance (complete dissociation of complex): about 3 times the amount of the PRNA1
